{"source": "patent US20230141603A1", "about": "“BENZODIAZEPINE DERIVATIVES AS GABA A GAMMA1 PAM” (Hoffmann-La Roche Inc., priority 2021, published 2023)", "biological_target": "T1, h-GABAA α5β2γ1 (Homo sapiens, UniProt P31644+Q8N1C3)", "T1 construct": "expressed in transfected cells; host or cells: HEK293F cells (ThermoFisher R79007), membranes", "T1 sequence (P31644 32-462)": "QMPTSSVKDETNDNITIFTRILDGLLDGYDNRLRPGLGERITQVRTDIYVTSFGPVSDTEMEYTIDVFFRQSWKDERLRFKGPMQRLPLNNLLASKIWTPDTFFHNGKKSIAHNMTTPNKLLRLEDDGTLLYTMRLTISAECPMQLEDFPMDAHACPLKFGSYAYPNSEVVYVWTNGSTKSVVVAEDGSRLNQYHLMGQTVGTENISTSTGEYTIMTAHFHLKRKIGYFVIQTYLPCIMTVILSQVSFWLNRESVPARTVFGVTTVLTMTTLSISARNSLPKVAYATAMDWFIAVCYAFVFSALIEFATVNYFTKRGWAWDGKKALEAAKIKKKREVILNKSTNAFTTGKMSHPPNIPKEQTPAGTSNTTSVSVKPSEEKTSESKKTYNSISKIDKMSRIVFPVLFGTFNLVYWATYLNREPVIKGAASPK", "T1 sequence (P47870 25-512 partner limits assumed)": "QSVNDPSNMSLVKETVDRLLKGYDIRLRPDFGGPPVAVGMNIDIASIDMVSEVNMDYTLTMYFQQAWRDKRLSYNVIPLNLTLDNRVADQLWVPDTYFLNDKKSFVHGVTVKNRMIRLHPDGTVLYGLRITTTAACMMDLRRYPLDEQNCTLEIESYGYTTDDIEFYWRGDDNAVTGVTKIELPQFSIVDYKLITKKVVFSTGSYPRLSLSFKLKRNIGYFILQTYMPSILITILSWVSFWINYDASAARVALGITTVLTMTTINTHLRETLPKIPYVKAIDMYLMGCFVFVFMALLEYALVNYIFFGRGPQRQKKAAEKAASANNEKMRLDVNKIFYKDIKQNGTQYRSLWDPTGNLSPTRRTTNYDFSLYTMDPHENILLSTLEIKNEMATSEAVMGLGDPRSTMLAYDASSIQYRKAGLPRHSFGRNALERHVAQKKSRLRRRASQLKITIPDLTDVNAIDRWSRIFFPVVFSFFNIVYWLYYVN", "T1 sequence (Q8N1C3 36-465)": "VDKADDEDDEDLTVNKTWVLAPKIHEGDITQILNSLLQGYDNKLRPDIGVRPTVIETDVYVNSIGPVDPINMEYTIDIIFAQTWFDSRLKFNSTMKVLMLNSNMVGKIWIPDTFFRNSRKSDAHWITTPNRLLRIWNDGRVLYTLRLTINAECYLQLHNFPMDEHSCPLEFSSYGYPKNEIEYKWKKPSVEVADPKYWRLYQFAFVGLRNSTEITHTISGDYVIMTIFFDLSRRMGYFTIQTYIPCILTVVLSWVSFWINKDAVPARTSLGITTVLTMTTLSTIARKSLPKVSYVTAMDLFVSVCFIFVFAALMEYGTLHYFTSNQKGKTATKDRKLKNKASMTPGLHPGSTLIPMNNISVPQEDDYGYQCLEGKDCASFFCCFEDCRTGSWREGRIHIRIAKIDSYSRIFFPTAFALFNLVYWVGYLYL", "experiment": "Radioligand binding assay, [3H]RO7239181 competition, HEK293F membranes", "protocol": "The affinity of compounds at GABAA γ1 subunit-containing receptors was measured by competition for [^3H]RO7239181 (67.3 Ci/mmol; Roche) binding to membranes from HEK293F cells (ThermoFisher R79007) expressing human (transiently transfected) receptors of composition […], α2β2γ1, α1β2γ1. For better protein expression of the α2 subunit-containing receptors, the 28 amino acid long signal peptide (Met1 to Ala28) of the human GABAA α2 subunit was substituted by the 31 amino acid long signal peptide (Met1 to Ser31) of human GABAA α5 subunit.\nHarvested pellets from HEK293F cells expressing the different GABAA receptor subtypes were resuspended in Mannitol Buffer pH 7.2-7.4 (Mannitol 0.29M, Triethylamine 10 mM, Acetic acid 10 mM, EDTA 1 mM plus protease inhibitors (20 tablets Complete, Roche Diagnostics Cat. No. 05 056 489 001 per liter)), washed two times and then resuspended at 1:10 to 1:15 dilution in the same buffer. Cell disruption was performed by stirring the suspension in a Parr vessel #4637 at 435 psi for 15 minutes, and then the suspensions were centrifuged at 1000×g for 15 minutes at 4° C. (Beckman Avanti J-HC; rotor JS-4.2). The supernatant (S1) was transferred in a 21 Schott flask and the pellet (P1) was resuspended with Mannitol Buffer up to 175 ml. The resuspended pellet was transferred into a 250 ml Corning centrifugal beaker and centrifuged at 1500×g for 10 minutes at 4° C. (Beckman Avanti J-HC; rotor JS-4.2). The supernatant (S1) was then transferred in the 21 Schott flask and the pellet was discarded. The supernatants (S1) were centrifuged in 500 ml Beckman polypropylene centrifugal beaker at 15′000×g for 30 minutes at 4° C. (Beckman Avanti J-20 XP; rotor JLA-10.500). The pellet (P2) was resuspended with Mannitol Buffer 1:1 and frozen at −80° C. The supernatant (S2) was centrifuged in 100 ml Beckman polypropylene centrifugal tubes at 48000×g for 50 minutes at 4° C. (Beckman Avanti J-20 XP; rotor JA-18). The supernatant (S3) was discarded and the pellet (P3) was resuspended with 1:1 Mannitol Buffer. The P2 and P3 protein concentration was determined with the BIORAD Standard assay method with bovine serum albumin as standard and measured on the NANO-Drop 1000. The membrane suspension was aliquots (500 μl per tube) and stored at −80° C. until required. Membrane homogenates were resuspended and polytronised (Polytron PT1200E Kinematica AG) in Potassium Phosphate 10 mM, KCl 100 mM binding buffer at pH 7.4 to a final assay concentration determined with a previous experiment.\nRadioligand binding assays were carried out in a volume of 200 μL (96-well plates) which contained 100 μL of cell membranes, [^3H]RO7239181 at a concentration of 1.5 nM (α5β2γ1) or 20-30 nM (α1β2γ1, α2β2γ1) and the test compound in the range of [0.3-10000]×10^−9 M. Nonspecific binding was defined by 10×10^−6 (α5β2γ1) and 30×10^−6 M RO7235136 and typically represented less than 5% (α5β2γ1) and less than 20% (α1β2γ1, α2β2γ1) of the total binding. Assays were incubated to equilibrium for 1 hour at 4° C. and then, membranes were filtered onto unifilter (96-well white microplate with bonded GF/C filters preincubated 20-50 minutes in 0.3% Polyethylenimine) with a Filtermate 196 harvester (Packard BioScience) and washed 4 times with cold Potassium Phosphate 10 mM pH 7.4, KCl 100 mM binding buffer. After drying, filter-retained radioactivity was detected by liquid scintillation counting. Ki values were calculated using Excel-Fit (Microsoft) and are the means of two determinations."}
{"compound": "Cc1nnc2n1-c1ccc(Br)c(Cl)c1C(c1c(F)cccc1F)=NC2", "note": "[Example 1, 8-bromo-7-chloro-6-(2,6-difluorophenyl)-1-methyl-4H-[1,2,4]triazolo[4,3-a][1,4]benzodiazepine]", "values": [{"measurement": "Ki", "result": 1.1, "unit": "nM"}]}
{"compound": "Fc1ccccc1C1=NCc2nnc(C3CC3)n2-c2ccc(Br)c(Cl)c21", "note": "[Example 2, 8-bromo-7-chloro-1-cyclopropyl-6-(2-fluorophenyl)-4H-[1,2,4]triazolo[4,3-a][1,4]benzodiazepine]", "values": [{"measurement": "Ki", "result": 5.7, "unit": "nM"}]}
{"compound": "Fc1ccccc1C1=NCc2nnc(-c3cccnn3)n2-c2ccc(Br)c(Cl)c21", "note": "[Example 3, 8-bromo-7-chloro-6-(2-fluorophenyl)-1-pyridazin-3-yl-4H-[1,2,4]triazolo[4,3-a][1,4]benzodiazepine]", "values": [{"measurement": "Ki", "result": 1.5, "unit": "nM"}]}
{"compound": "Cc1nnc2n1-c1ccc(Cl)c(Cl)c1C(c1ccccc1F)=NC2", "note": "[Example 4, 7,8-dichloro-6-(2-fluorophenyl)-1-methyl-4H-[1,2,4]triazolo[4,3-a][1,4]benzodiazepine]", "values": [{"measurement": "Ki", "result": 5.4, "unit": "nM"}]}
{"compound": "Cc1nnc2n1-c1ccc(Cl)c(Cl)c1C(c1c(F)cccc1F)=NC2", "note": "[Example 5, 7,8-dichloro-6-(2,6-difluorophenyl)-1-methyl-4H-[1,2,4]triazolo[4,3-a][1,4]benzodiazepine]", "values": [{"measurement": "Ki", "result": 0.8, "unit": "nM"}]}
{"compound": "Cc1nnc2n1-c1ccc(C3CC3)c(Cl)c1C(c1c(F)cccc1F)=NC2", "note": "[Example 6, 7-chloro-8-cyclopropyl-6-(2,6-difluorophenyl)-1-methyl-4H-[1,2,4]triazolo[4,3-a][1,4]benzodiazepine]", "values": [{"measurement": "Ki", "result": 12.7, "unit": "nM"}]}
{"compound": "Fc1cccc(F)c1C1=NCc2nncn2-c2ccc(Br)c(Cl)c21", "note": "[Example 7, 8-bromo-7-chloro-6-(2,6-difluorophenyl)-4H-[1,2,4]triazolo[4,3-a][1,4]benzodiazepine]", "values": [{"measurement": "Ki", "result": 0.4, "unit": "nM"}]}
{"compound": "Fc1ccccc1C1=NCc2nncn2-c2ccc(Br)c(Cl)c21", "note": "[Example 8, 8-bromo-7-chloro-6-(2-fluorophenyl)-4H-[1,2,4]triazolo[4,3-a][1,4]benzodiazepine]", "values": [{"measurement": "Ki", "result": 2.3, "unit": "nM"}]}
{"compound": "O=c1[nH]nc2n1-c1ccc(Cl)c(Cl)c1C(c1c(F)cccc1F)=NC2", "note": "[Example 9, 7,8-dichloro-6-(2,6-difluorophenyl)-2,4-dihydro-[1,2,4]triazolo[4,3-a][1,4]benzodiazepin-1-one]", "values": [{"measurement": "Ki", "result": 0.7, "unit": "nM"}]}
{"compound": "Fc1ccccc1C1=NCc2nnc(-c3cccnn3)n2-c2ccc(Cl)c(Cl)c21", "note": "[Example 10, 7,8-dichloro-6-(2-fluorophenyl)-1-pyridazin-3-yl-4H-[1,2,4]triazolo[4,3-a][1,4]benzodiazepine]", "values": [{"measurement": "Ki", "result": 1.4, "unit": "nM"}]}
{"compound": "Fc1cccc(F)c1C1=NCc2nnc(C3CCOCC3)n2-c2ccc(Cl)c(Cl)c21", "note": "[Example 11, 7,8-dichloro-6-(2,6-difluorophenyl)-1-tetrahydropyran-4-yl-4H-[1,2,4]triazolo[4,3-a][1,4]benzodiazepine]", "values": [{"measurement": "Ki", "result": 8.3, "unit": "nM"}]}
{"compound": "Fc1cccc(F)c1C1=NCc2nnc(-c3ccncn3)n2-c2ccc(Cl)c(Cl)c21", "note": "[Example 12, 7,8-dichloro-6-(2,6-difluorophenyl)-1-pyrimidin-4-yl-4H-[1,2,4]triazolo[4,3-a][1,4]benzodiazepine]", "values": [{"measurement": "Ki", "result": 2.3, "unit": "nM"}]}
{"compound": "O=c1[nH]nc2n1-c1ccc(Br)c(Cl)c1C(c1c(F)cccc1F)=NC2", "note": "[Example 13, 8-bromo-7-chloro-6-(2,6-difluorophenyl)-2,4-dihydro-[1,2,4]triazolo[4,3-a][1,4]benzodiazepin-1-one]", "values": [{"measurement": "Ki", "result": 1.1, "unit": "nM"}]}
{"compound": "Fc1cccc(F)c1C1=NCc2nnc(-c3cccnn3)n2-c2ccc(Cl)c(Cl)c21", "note": "[Example 14, 7,8-dichloro-6-(2,6-difluorophenyl)-1-pyridazin-3-yl-4H-[1,2,4]triazolo[4,3-a][1,4]benzodiazepine]", "values": [{"measurement": "Ki", "result": 0.8, "unit": "nM"}]}
{"compound": "Fc1cccc(F)c1C1=NCc2nncn2-c2ccc(Cl)c(Cl)c21", "note": "[Example 15, 7,8-dichloro-6-(2,6-difluorophenyl)-4H-[1,2,4]triazolo[4,3-a][1,4]benzodiazepine]", "values": [{"measurement": "Ki", "result": 0.9, "unit": "nM"}]}
{"compound": "Cc1ccc2c(c1Cl)C(c1c(F)cccc1F)=NCc1n[nH]c(=O)n1-2", "note": "[Example 16, 7-chloro-6-(2,6-difluorophenyl)-8-methyl-2,4-dihydro-[1,2,4]triazolo[4,3-a][1,4]benzodiazepin-1-one]", "values": [{"measurement": "Ki", "result": 1.8, "unit": "nM"}]}
{"compound": "Cc1ccc2c(c1Cl)C(c1c(F)cccc1F)=NCc1nncn1-2", "note": "[Example 17, 7-chloro-6-(2,6-difluorophenyl)-8-methyl-4H-[1,2,4]triazolo[4,3-a][1,4]benzodiazepine]", "values": [{"measurement": "Ki", "result": 1.3, "unit": "nM"}]}
{"compound": "Fc1ccccc1C1=NCc2nnc(-c3ccncn3)n2-c2ccc(Cl)c(Cl)c21", "note": "[Example 18, 7,8-dichloro-6-(2-fluorophenyl)-1-pyrimidin-4-yl-4H-[1,2,4]triazolo[4,3-a][1,4]benzodiazepine]", "values": [{"measurement": "Ki", "result": 2.6, "unit": "nM"}]}
{"compound": "COCCc1nnc2n1-c1ccc(Cl)c(Cl)c1C(c1c(F)cccc1F)=NC2", "note": "[Example 19, 7,8-dichloro-6-(2,6-difluorophenyl)-1-(2-methoxyethyl)-4H-[1,2,4]triazolo[4,3-a][1,4]benzodiazepine]", "values": [{"measurement": "Ki", "result": 2.5, "unit": "nM"}]}
{"compound": "Cc1ccc2c(c1Cl)C(c1c(F)cccc1F)=NCc1nnc(C)n1-2", "note": "[Example 20, 7-chloro-6-(2,6-difluorophenyl)-1,8-dimethyl-4H-[1,2,4]triazolo[4,3-a][1,4]benzodiazepine]", "values": [{"measurement": "Ki", "result": 2.9, "unit": "nM"}]}
{"compound": "CC(F)(F)c1ccc2c(c1Cl)C(c1c(F)cccc1F)=NCc1nncn1-2", "note": "[Example 21, 7-chloro-8-(1,1-difluoroethyl)-6-(2,6-difluorophenyl)-4H-[1,2,4]triazolo[4,3-a][1,4]benzodiazepine]", "values": [{"measurement": "Ki", "result": 4.6, "unit": "nM"}]}
{"compound": "Cc1nnc2n1-c1ccc(C(C)(F)F)c(Cl)c1C(c1c(F)cccc1F)=NC2", "note": "[Example 22, 7-chloro-8-(1,1-difluoroethyl)-6-(2,6-difluorophenyl)-1-methyl-4H-[1,2,4]triazolo[4,3-a][1,4]benzodiazepine]", "values": [{"measurement": "Ki", "result": 4.3, "unit": "nM"}]}
